Measurements from patent publication US20110065632A1, “PHARMACEUTICAL COMPOSITIONS OF SOMATOSTATIN-DOPAMINE CONJUGATES” (priority 2008, published 2011).
Like-named read-outs stand apart in the source and are kept apart here. Numbered stars: 1 amine (or outer) side, 2 acyl side, 3 side chain; on linkers, the order of the positions; unused ones are H or OH. Bridge positions count the residues as written; N and C are the ends. Square brackets hold non-standard residues; d marks the D form. Peptide text beside a SMILES is read from it. * marks the point of attachment. X1 = CCCN1C[C@H](CSCC(=O)*)C[C@@H]2c3cccc4[nH]cc(c34)C[C@H]21; X2 = CN1C[C@H](CSCC(=O)*)C[C@@H]2c3cccc4[nH]cc(c34)C[C@H]21; Pipz(1-CH2CO,4-CH2CH2NH) = O=C(CN1CCN(CCN[*:1])CC1)[*:2]; Abu = CC[C@H](N)C(=O)O; AEEA = NCCOCCOCC(=O)O

How the values were obtained:
hUTII = biological target: T1, hUTII (Homo sapiens, UniProt Q9UKP6); assay: hUTII inhibition constant; type: binding; settings: read-out: hUTII Ki
T1 sequence (Q9UKP6 1-389): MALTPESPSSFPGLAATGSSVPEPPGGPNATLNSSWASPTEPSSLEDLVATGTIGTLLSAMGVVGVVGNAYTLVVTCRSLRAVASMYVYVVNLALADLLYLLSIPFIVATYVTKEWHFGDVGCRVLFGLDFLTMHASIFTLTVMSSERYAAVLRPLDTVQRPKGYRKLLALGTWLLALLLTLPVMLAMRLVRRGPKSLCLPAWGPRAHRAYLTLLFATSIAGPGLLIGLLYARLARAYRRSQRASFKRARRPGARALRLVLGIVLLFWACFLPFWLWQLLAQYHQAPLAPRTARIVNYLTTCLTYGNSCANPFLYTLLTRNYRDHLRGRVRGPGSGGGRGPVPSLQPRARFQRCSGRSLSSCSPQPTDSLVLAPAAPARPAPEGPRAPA
Procedure: (§1) Using the discussed assays, the inhibition constants (Ki) for the five human somatostatin receptors (hSSTR1-hSSTR5) and the dopamine-2 receptor (hUTII and hDA2) were measured for the exemplified somatostatin-dopamine conjugates, as follows: […]

hsst2 = biological target: T2, hsst2 (Homo sapiens, UniProt P30874); assay: Somatostatin receptor radioligand binding assay, hsst2; settings: CHO-K1 membranes, [125I]MK-678; read-out: hsst2 Ki
T2 construct: expressed in transfected cells
T2 sequence (P30874 whole entry): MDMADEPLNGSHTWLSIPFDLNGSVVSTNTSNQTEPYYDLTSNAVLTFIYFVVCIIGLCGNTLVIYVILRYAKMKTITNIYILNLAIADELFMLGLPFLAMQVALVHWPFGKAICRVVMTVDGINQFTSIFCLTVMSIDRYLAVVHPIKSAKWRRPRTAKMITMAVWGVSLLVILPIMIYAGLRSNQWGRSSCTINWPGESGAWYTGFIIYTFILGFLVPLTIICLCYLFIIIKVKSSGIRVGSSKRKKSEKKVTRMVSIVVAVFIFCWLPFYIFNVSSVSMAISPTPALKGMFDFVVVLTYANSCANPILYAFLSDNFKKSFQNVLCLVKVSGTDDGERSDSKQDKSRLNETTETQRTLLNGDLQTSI
Procedure: (§2) Specificity and selectivity of the somatostatin analogues used to synthesize the somatostatin-dopamine chimers were determined by a radioligand binding assay on CHO-K1 cells stably transfected with each of the SSTR subtypes, as follows. Somatostatin analogs are also described in U.S. Patent Application Publication No. 02210006790. The complete coding sequences of genomic fragments of the SSTR 1 (e.g., Genbank accession No. M81829), SSTR 2 (e.g., Genbank accession No. M81830), SSTR 3 (e.g., Genbank accession No. L07062), and SSTR 4 (e.g., Genbank accession No. AL049651) genes and a cDNA clone for SSTR 5 (e.g., Genbank accession No. D16827) was subcloned into the mammalian expression vector pCMV (Life Technologies, Milano, Italy). Other SSTR sequences are known to the skilled artisan. Clonal cell lines stably expressing SSTR's 1-5 were obtained by transfection into CHO-K1 cells (ATCC, Manassas, Va., USA) using the calcium phosphate co-precipitation method (Davis L, et al., 1994 In: Basic methods in Molecular Biology, 2nd edition, Appleton & Lange, Norwalk, Conn., USA: 611-646). The plasmid pRSV-neo (ATCC) was included as a selectable marker. Clonal cell lines were selected in RPMI 1640 media containing 0.5 mg/mL of G418 (Life Technologies, Milano, Italy), ring cloned, and expanded into culture.
(§3) Membranes for in vitro receptor binding assays were obtained by homogenizing the CHO-K1 cells expressing the SSTR's subtypes in ice-cold 50 mM Tris-HCl and centrifuging twice at 39,000 g (10 min), with an intermediate resuspension in fresh buffer. The final pellets were resuspended in 10 mM Tris-HCl for assay.
(§4) For the SSTR 2 assay, 0.05 nM [^125I]MK-678 was employed as the radioligand and the incubation time was 90 minutes at 25° C. The incubations were terminated by rapid filtration through GF/C glass microfiber filters (Whatman Co.) (pre-soaked in 0.3% polyethylenimine) using a BRANDEL filtration manifold. Each tube and filter was washed three times with 5 mL aliquots of ice-cold buffer. Specific binding was defined as the total radioligand bound minus that bound in the presence of 1000 nM SS-14 for SSTR 1, 3, 4, and 5, or 1000 nM MK-678 for SSTR2.

hsst3 = biological target: T3, hsst3 (Homo sapiens, UniProt P32745); assay: Somatostatin receptor radioligand binding assay, hsst3
T3 construct: expressed in transfected cells
T3 sequence (P32745 whole entry): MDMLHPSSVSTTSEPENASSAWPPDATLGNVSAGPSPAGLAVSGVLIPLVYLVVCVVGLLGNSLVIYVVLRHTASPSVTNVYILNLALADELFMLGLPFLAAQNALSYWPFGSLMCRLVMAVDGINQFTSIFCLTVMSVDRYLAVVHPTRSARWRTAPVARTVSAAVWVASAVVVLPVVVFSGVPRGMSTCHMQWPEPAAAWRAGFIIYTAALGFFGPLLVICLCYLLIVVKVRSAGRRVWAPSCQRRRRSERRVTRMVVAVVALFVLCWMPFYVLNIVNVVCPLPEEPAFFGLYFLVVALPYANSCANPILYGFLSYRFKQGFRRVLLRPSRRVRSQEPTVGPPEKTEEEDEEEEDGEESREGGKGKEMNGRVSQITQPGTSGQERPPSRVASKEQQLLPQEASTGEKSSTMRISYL
Procedure: as §2, §3
(§5) For the SSTR 1, 3, 4, and 5 assays, aliquots of the membrane preparations were incubated 90 minutes at 25° C. with 0.05 nM [^125I-Tyr11]SS-14 in 50 mM HEPES (pH 7.4) containing 10 mg/mL BSA, 5 mM MgCl2, 200 KIU/mL Trasylol, 0.02 mg/mL bacitracin, and 0.02 mg/mL phenylmethylsuphonyl fluoride. The final assay volume was 0.3 mL.
as §4, §1

hsst5 = biological target: T4, hsst5 (Homo sapiens, UniProt P35346); assay: Somatostatin receptor radioligand binding assay, hsst5; settings: CHO-K1 membranes, [125I-Tyr11]SS-14
T4 construct: expressed in transfected cells
T4 sequence (P35346 whole entry): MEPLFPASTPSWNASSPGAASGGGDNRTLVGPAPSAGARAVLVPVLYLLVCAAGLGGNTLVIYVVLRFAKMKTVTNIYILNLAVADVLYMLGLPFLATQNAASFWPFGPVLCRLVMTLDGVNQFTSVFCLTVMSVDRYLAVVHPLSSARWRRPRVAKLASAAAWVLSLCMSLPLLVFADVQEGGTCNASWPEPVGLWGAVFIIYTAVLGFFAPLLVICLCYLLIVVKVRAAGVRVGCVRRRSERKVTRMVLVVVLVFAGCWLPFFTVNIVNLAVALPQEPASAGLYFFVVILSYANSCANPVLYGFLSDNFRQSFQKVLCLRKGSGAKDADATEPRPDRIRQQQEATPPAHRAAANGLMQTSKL
Procedure: as §2, §3, §5, §4

hDA2 = assay: Dopamine-2 receptor radioligand binding assay; set-up: species or system human; settings: [3H]spiperone
Procedure: Specificity and selectivity for the dopamine-2 receptor of the dopamine analogues used to synthesize the somatostatin-dopamine chimers may be determined by a radioligand binding assay as follows.
Crude membranes were prepared by homogenization of frozen rat corpus striatum (Zivic Laboratories, Pittsburgh, Pa., USA) in 20 mL of ice-cold 50 mM Tris-HCl with a Brinkman Polytron cell disrupter (setting 6, 15 sec). Buffer was added to obtain a final volume of 40 mL, and the homogenate was centrifuged in a Sorval SS-34 rotor at 39,000 g for 10 minutes at 0-4° C. The resulting supernatant was decanted and discarded. The pellet was rehomogenized in ice-cold buffer, pre-incubated at 37° C. for 10 min, diluted, and centrifuged as before. The final pellet was resuspended in buffer and held on ice for the receptor binding assay.
For assay, aliquots of the washed membrane preparations and test compounds were incubated for 15 minutes (37° C.) with 0.25 nM [^3HI]spiperone (16.5 Ci.mmol, New England Nuclear, Boston, Mass., USA) in 50 mM Tris HCl, 120 mM NaCl, 5 mM KCl, 2 mM CaCl2, 1 mM MgCl2. The final assay volume was 1.0 mL. The incubations were terminated by rapid filtration through GF/B glass fibre filters using a Brandel filtration manifold. Each tube and filter was then washed three times with 5-mL aliquots of ice-cold buffer. Specific binding was defined as the total radioligand bound minus that bound in the presence of 1000 nM (+) butaclamol.
as §1

[1] = CHO-K1 membranes, [125I-Tyr11]SS-14, read-out: hsst3 Ki

## CC[C@@H]1NC(=O)[C@H](CCCCN)NC(=O)[C@@H](Cc2c[nH]c3ccccc23)NC(=O)[C@H](Cc2ccc(O)cc2)NC(=O)[C@@H](NC(=O)[C@@H](Cc2ccc(O)cc2)NC(=O)[C@@H](Cc2ccc(O)cc2)NC(=O)[C@H](CCCCN)NC(=O)CN2CCN(CCNC(=O)CSC[C@@H]3C[C@@H]4c5cccc6[nH]cc(c56)C[C@H]4N(C)C3)CC2)CSSC[C@@H](C(=O)N[C@H](C(N)=O)[C@@H](C)O)NC1=O [Example 32] (X2-[Pipz(1-CH2CO,4-CH2CH2NH)]K[dY][dY]CY[dW]K[Abu]CT-NH2; disulfide 5-10)
hUTII
  Ki: 267 nM
hsst2
  Ki: 0.22 nM
hsst3
  Ki: 45.6 nM
hsst5; hsst5 Ki
  Ki: 13.8 nM
hDA2
  Ki: 136 nM

## CC[C@@H]1NC(=O)[C@H](CCCCN)NC(=O)[C@@H](Cc2c[nH]c3ccccc23)NC(=O)[C@H](Cc2ccc(O)cc2)NC(=O)[C@@H](NC(=O)[C@@H](Cc2ccc(O)cc2)NC(=O)[C@@H](Cc2ccc(O)cc2)NC(=O)[C@H](CCCCN)NC(=O)CSC[C@@H]2C[C@@H]3c4cccc5[nH]cc(c45)C[C@H]3N(C)C2)CSSC[C@@H](C(=O)N[C@H](C(N)=O)[C@@H](C)O)NC1=O [Example 33] (X2-K[dY][dY]CY[dW]K[Abu]CT-NH2; disulfide 4-9)
hUTII
  Ki: 37.7 nM
hsst2
  Ki: 0.2 nM
hsst3
  Ki: 65.1 nM
hsst5; hsst5 Ki
  Ki: 9.82 nM
hDA2
  Ki: 206 nM

## CC[C@@H]1NC(=O)[C@H](CCCCN)NC(=O)[C@@H](Cc2c[nH]c3ccccc23)NC(=O)[C@H](Cc2ccc(O)cc2)NC(=O)[C@@H](NC(=O)[C@@H](Cc2ccc(O)cc2)NC(=O)[C@@H](Cc2ccc(O)cc2)NC(=O)[C@H](CCCCN)NC(=O)COCCOCCNC(=O)CSC[C@@H]2C[C@@H]3c4cccc5[nH]cc(c45)C[C@H]3N(C)C2)CSSC[C@@H](C(=O)N[C@H](C(N)=O)[C@@H](C)O)NC1=O [Example 34] ({X2-AEEA}-K[dY][dY]CY[dW]K[Abu]CT-NH2; disulfide 4-9)
hUTII
  Ki: 211 nM
hsst2
  Ki: 0.23 nM
hsst3
  Ki: 48.4 nM
hsst5; hsst5 Ki
  Ki: 8.6 nM
hDA2
  Ki: 114 nM

## CCCN1C[C@H](CSCC(=O)N[C@@H](CCCCN)C(=O)N[C@H](Cc2ccc(O)cc2)C(=O)N[C@H](Cc2ccc(O)cc2)C(=O)N[C@H]2CSSC[C@@H](C(=O)N[C@H](C(N)=O)[C@@H](C)O)NC(=O)[C@H](CC)NC(=O)[C@H](CCCCN)NC(=O)[C@@H](Cc3c[nH]c4ccccc34)NC(=O)[C@H](Cc3ccc(O)cc3)NC2=O)C[C@@H]2c3cccc4[nH]cc(c34)C[C@H]21 [Example 35] (X1-K[dY][dY]CY[dW]K[Abu]CT-NH2; disulfide 4-9)
hUTII
  Ki: 134 nM
hsst2
  Ki: 0.27 nM
hsst3; [1]
  Ki: 109 nM
hsst5; read-out: hsst5 Ki
  Ki: 13.6 nM
hDA2
  Ki: 55.8 nM

## CCCN1C[C@H](CSCC(=O)NCCN2CCN(CC(=O)NCCN3CCN(CC(=O)N[C@H](Cc4ccccc4)C(=O)N[C@H]4CSSC[C@@H](C(=O)N[C@H](C(N)=O)[C@@H](C)O)NC(=O)[C@H](CC)NC(=O)[C@H](CCCCN)NC(=O)[C@@H](Cc5c[nH]c6ccccc56)NC(=O)[C@H](Cc5ccc(O)cc5)NC4=O)CC3)CC2)C[C@@H]2c3cccc4[nH]cc(c34)C[C@H]21 [Example 36] (X1-[Pipz(1-CH2CO,4-CH2CH2NH)][Pipz(1-CH2CO,4-CH2CH2NH)][dF]CY[dW]K[Abu]CT-NH2; disulfide 4-9)
hUTII
  Ki: 3090 nM
hsst2
  Ki: 1.67 nM
hsst3; [1]
  Ki: 145 nM
hsst5; read-out: hsst5 Ki
  Ki: 53.5 nM
hDA2
  Ki: 328 nM

## CC[C@@H]1NC(=O)[C@H](CCCCN)NC(=O)[C@@H](Cc2c[nH]c3ccccc23)NC(=O)[C@H](Cc2ccc(O)cc2)NC(=O)[C@@H](NC(=O)[C@@H](Cc2ccccc2)NC(=O)CN2CCN(CCNC(=O)CSC[C@@H]3C[C@@H]4c5cccc6[nH]cc(c56)C[C@H]4N(C)C3)CC2)CSSC[C@@H](C(=O)N[C@H](C(N)=O)[C@@H](C)O)NC1=O [Example 38]
hUTII
  Ki: 1190 nM
hsst2
  Ki: 0.35 nM
hsst3; [1]
  Ki: 61.9 nM
hsst5; read-out: hsst5 Ki
  Ki: 28.1 nM
hDA2
  Ki: 411 nM
